{"source": "patent EP3819377A1", "about": "“CIRCULAR RNA AND USES THEREOF FOR […]-BINDING PROTEINS” (Justus-Liebig-Universität Gießen, priority 2019, dated 2021)", "origin": "cited, not measured here", "details": "cationic lipid with a tertiary amine group; WO 2012/031046 A2"}
{"smiles": "CCCCC/C=C\\C/C=C\\CCCCCCCCOCC(CN(C)C)OCCCCCCCC/C=C\\C/C=C\\CCCCC", "note": "(stereo not shown) [DLinDMA, 1,2-dilinoleyloxy-N,N-dimethyl-3-aminopropane]", "values": [{"measurement": "pKa", "result": 5.8}]}
